This is an account of results in patent publication US12564600B2, “System for enhancing therapeutic compliance of the anti-cancer compound E7766” (Eisai R&D Management Co., Ltd., priority 2019, dated 2026).

Each structure is given as a SMILES string. ≈ marks a conversion by molar mass, not a printed value. Entries after “also recorded” stand apart in the source; their conditions may differ.

Data set [1] concerns sandwich-cultured human hepatocytes (SCHH). As to the kind of experiment: Hepatic uptake in sandwich-cultured human hepatocytes. The format is in vitro ADME. The method, then:
Hepatic uptake and hepatobiliary disposition of Compound 1 was evaluated in sandwich-cultured human hepatocytes (SCHH) prepared from one donor. For assessing hepatic uptake, Compound 1 was incubated for 1, 5, and 10 minutes and the solutions were collected and frozen at −80° C. until process for bioanalysis. The wells were then washed three times with ice cold Plus (+) Buffer and were frozen at −80° C. until processed for bioanalysis. Biliary excretion of compound 1 was assessed in SCHH utilizing B-CLEAR® Technology. Briefly, cell culture medium was removed, and hepatocytes were washed twice with warm Plus (+) or Minus (−) Buffer to maintain or disrupt tight junctions, respectively. The wash solutions were removed and replaced with fresh Plus (+) Buffer or Minus (−) Buffer. The hepatocytes were conditioned for 10 minutes at 37° C. The conditioning solutions were removed and replaced with dosing solutions for Compound 1. Following a 20 minute incubation, the solutions were collected and frozen at −80° C. until process for bioanalysis. The wells were then washed three times with ice cold Plus (+) Buffer. The plates were frozen at −80° C. until processed for bioanalysis. The biliary excretion index (BEI) was calculated according to following equation: […]

Another data set has as its target T1, OATP1B3 (Homo sapiens, UniProt Q9NPD5).
T1 construct: expressed in transfected cells; host or cells: HEK293-FT
T1 sequence (Q9NPD5 1-702): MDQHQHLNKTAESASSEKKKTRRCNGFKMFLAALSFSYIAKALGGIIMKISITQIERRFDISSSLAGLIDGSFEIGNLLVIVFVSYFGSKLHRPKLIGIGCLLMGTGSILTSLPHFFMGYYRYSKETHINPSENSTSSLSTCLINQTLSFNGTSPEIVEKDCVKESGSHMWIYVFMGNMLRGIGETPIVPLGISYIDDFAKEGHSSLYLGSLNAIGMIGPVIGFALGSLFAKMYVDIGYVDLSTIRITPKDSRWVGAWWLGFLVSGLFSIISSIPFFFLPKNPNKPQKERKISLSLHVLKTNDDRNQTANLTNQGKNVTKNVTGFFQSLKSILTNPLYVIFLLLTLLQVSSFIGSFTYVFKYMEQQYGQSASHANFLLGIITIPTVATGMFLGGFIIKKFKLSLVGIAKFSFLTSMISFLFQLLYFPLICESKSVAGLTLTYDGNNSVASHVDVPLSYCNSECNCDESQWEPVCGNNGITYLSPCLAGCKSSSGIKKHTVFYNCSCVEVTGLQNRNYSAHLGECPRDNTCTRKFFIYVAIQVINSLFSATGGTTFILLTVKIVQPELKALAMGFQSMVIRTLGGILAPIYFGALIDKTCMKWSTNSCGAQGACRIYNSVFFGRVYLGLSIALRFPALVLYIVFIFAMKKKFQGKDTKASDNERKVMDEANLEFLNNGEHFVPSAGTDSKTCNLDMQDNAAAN
Nature of the data set: Uptake in HEK293 cells overexpressing OATP1B3. It counts as in vitro ADME. How it is done:
TransportoCells™ (Corning, N.Y., USA) expressing OATP2B1, NTCP, and HEK293-FT cells stably transfected with the vector containing OATP1B1 cDNA or OATP1B3 cDNA or empty vector were grown in a Dulbecoo's modified Eagle's medium fortified with 10% fetal calf serum and 2 mmol/L sodium butyrate (for NTCP only) in a humidified incubator at 37° C. and 5% CO2. Cells were harvested at 90% confluence and then seeded in poly-D-lysine-coated 24-well 24 h prior to transporter assay. Cells were washed twice and pre-incubated with 200 μL of pre-warmed Krebs-Henseleit buffer. After pre-incubation, cells were incubated with 3 or 10 μmol L-1 of Compound 1 in presence or absence of 100 μmol L-1 of inhibitors (Rifamycin SV for OATP2B1, Troglitazone for NTCP, Rifamycin for OATP1B1 and OATP1B3). The transport reaction was terminated by aspirating the buffer from the wells at designated time. After washing three times with 200 μL of ice-cold Krebs-Henseleit buffer, the cells were lysed and the resulting cellular lysates were analyzed by LC-MS/MS.
Concentration-dependent uptake of Compound 1 via OATP1B1 and OATP1B3 were conducted with a concentration range of 0.25-100 μmol L-1 under linear uptake. All experiments were run in triplicates.

A short description of data set [2]: Pharmacokinetics and excretion in bile duct-cannulated rat, single IV dose. The format is in vivo, Sprague Dawley rats. Particulars: IV 1 mg/kg, Mean SD. The method, then:
Male bile duct-cannulated beagle dogs or Sprague Dawley rats (n=3) were given a single intravenous (IV) dose of Compound 1. Plasma, urine and bile samples were collected from the dogs, and blood, urine, bile and feces samples were collected from rats up to 48 hours post-dose. Blood samples were kept on wet ice after collection until centrifuged for separation of plasma. Urine samples were collected at intervals 0 to 4, 4 to 8, 8 to 24, and 24 to 48 hours post-dose into collection tubes on wet ice. Bile samples were collected at intervals 0 to 4, 4 to 8, 8 to 24, and 24 to 48 hours post-dose into collection tubes cooled via an ice pack. Feces samples for rats were collected over 0 to 24 hour interval. All samples were transferred into properly labeled tubes and stored at −70° C. until pending shipment to the bioanalytical facility. All samples were analyzed using LC-MS/MS and the pharmacokinetic parameters of Compound 1 were determined with Phoenix WinNonlin using non-compartmental analysis.
Data are shown as Mean SD. NC indicates Not Collected.

A short description of data set [3]: Physicochemical properties and ECCS classification of Compound 1.

In general, Km refers to the concentration of substrate that gives half-maximal velocity. A word on the solubility: it is how much of the substance goes into solution per volume. Low readings indicate little dissolved substance, high ones much dissolved substance. For orientation: pKa means the pH at which an ionisable group is half protonated.

With `O=[P@]1(S)OC[C@H]2O[C@@H]3[C@H](F)[C@@H]2O[P@](=O)(S)OC[C@H]2O[C@H]([C@H](F)[C@@H]2O1)n1cnc2c(ncnc21)NC/C=C/CNc1ncnc2c1ncn23` [Compound 1], the “concentration at which hepatic uptake is saturated” value in data set [1] (SCHH) was over 1 µM. The “dose proportionality of hepatic uptake” value in data set [1] (SCHH, 0.3 to 1 μM, 1 to 5 minutes of exposure) is on record as “approximately dose-proportional”. In data set [1] (SCHH, incubation at 4° C.), the “hepatic uptake at 4° C. relative to 37° C.” value is < 7.7 % of 37 °C. Moreover, the “mechanism of uptake in human hepatocytes” value in data set [1] (human hepatocytes) is on record as “temperature-dependent active uptake”. In addition, in data set [1] (human hepatocytes, Rifampin, tetraethylammonium), the “inhibition of hepatocyte uptake by transporter inhibitors” value is on record as “could be inhibited by Rifampin but not by tetraethylammonium”. In addition, the “substrate of OATP1B3” value on OATP1B3 (HEK293 cells overexpressing human OATP1B3) is “responsible for hepatic uptake; also recorded: substrate”. The “Jmax (pmol/min/million cells), OATP1B3” value at OATP1B3 (Simcyp input parameter, Table 3) came out at 24.39 pmol/min/million cells. On OATP1B3 (human, HEK293-FT cells stably transfected with OATP1B3 cDNA, Simcyp input parameter, Table 3), the Km came to 4 µM. Moreover, the “contribution of OATP1B3 versus OATP1B1 in hepatobiliary clearance” value on OATP1B3 (phenotyping studies) is given as “predominant contribution of OATP1B3 over OATP1B1”. The “% Ae, feces” value in data set [2] (0 to 24 h) was 0.4 ± 0.2%. For the same molecule, the “% Ae, urine” value in data set [2] (up to 48 h, 1 mg/kg) amounted to 13.7 ± 2.8%. This molecule also displayed a solubility in data set [3] of 150 µM (≈ 112 µg/mL). Further, the logD in data set [3] (read-out: measured Log D) came to 1.31. Also, the pKa in data set [3] (read-out: measured pKa) amounted to 3.41.
